In patent US20170027958A1, “FULVESTRANT COMPOSITIONS” (THEMIS MEDICARE LIMITED, priority 2013, published 2017):
Read-outs that look alike come from different tables or passages of the source.

Experiment: Solubility studies of fulvestrant in solvents, co-solvents, oils and release rate modifiers
Assay type: physicochemical
Conditions: for solubility: read-out: Fulvestrant solubility achieved
Procedure: Solubility studies of fulvestrant were performed using various combinations of solvent, co-solvents, oils and release rate modifiers. The resultant data are shown herein below Table 1.

Fulvestrant solubility achieved (Benzyl alcohol (4 v/v %):Diethylene glycol monoethyl ether (q.s. to 1.7 mL)): 300 mg/1.7 mL
solubility (Benzyl alcohol (10 v/v %):Castor oil (50 v/v %):Diethylene glycol monoethyl ether (q.s. to 1 mL)): 151 mg/mL
solubility (benzyl alcohol / diethylene glycol monoethyl ether mixture, Benzyl alcohol (2 v/v %):Diethylene glycol monoethyl ether (q.s. to 1 mL)): 200 mg/mL
Compound: C[C@]12CC[C@@H]3c4ccc(O)cc4C[C@@H](CCCCCCCCC[S+]([O-])CCCC(F)(F)C(F)(F)F)[C@H]3[C@@H]1CC[C@@H]2O (stereo partly drawn) [Fulvestrant, 7-alpha-[9-[(4,4,5,5,5-pentafluoropentyl)sulfinyl]nonyl]estra-1,3,5(10)-triene-3,17-beta-diol]
